Measurements reported in patent publication US20260297070A1, “CYCLIC [COMPOUND LEFT OUT] WRN INHIBITORS” (Nimbus Wadjet, Inc., priority 2023, published 2026).

target: T1, human Werner helicase (WRN-BV08, Uniprot Q14191, amino acids 517-1235 with L1074F point mutation) (Homo sapiens, UniProt Q14191, L1074F); experiment: WRN (BV08) ADP-Glo Assay; assay type: biochemical; conditions: 0.15 nM WRN, 5 μM ATP, 0.1 nM DNA duplex, 15 min preincubation, 60 min at 25° C., pH 7.5, 1% DMSO; read-out: ADP-Glo_hWRN_IC50
T1 construct: Uniprot Q14191, amino acids 517-1235 with L1074F point mutation; TEV-cleavable 8×His (C, cleaved yes); made in house; host or cells: Sf9 insect cells (baculovirus)
Procedure, shortened: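 Helicase ATPase activity is measured at 25 °C over 60 min using 0.15 nM enzyme, 5 μM ATP and 0.1 nM DNA duplex, final DMSO 1%. ADP production is detected by luminescence, with IC50 derived by curve fitting.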

T1 sequence (Q14191 with tags, fused parts or gaps L1074F limits assumed): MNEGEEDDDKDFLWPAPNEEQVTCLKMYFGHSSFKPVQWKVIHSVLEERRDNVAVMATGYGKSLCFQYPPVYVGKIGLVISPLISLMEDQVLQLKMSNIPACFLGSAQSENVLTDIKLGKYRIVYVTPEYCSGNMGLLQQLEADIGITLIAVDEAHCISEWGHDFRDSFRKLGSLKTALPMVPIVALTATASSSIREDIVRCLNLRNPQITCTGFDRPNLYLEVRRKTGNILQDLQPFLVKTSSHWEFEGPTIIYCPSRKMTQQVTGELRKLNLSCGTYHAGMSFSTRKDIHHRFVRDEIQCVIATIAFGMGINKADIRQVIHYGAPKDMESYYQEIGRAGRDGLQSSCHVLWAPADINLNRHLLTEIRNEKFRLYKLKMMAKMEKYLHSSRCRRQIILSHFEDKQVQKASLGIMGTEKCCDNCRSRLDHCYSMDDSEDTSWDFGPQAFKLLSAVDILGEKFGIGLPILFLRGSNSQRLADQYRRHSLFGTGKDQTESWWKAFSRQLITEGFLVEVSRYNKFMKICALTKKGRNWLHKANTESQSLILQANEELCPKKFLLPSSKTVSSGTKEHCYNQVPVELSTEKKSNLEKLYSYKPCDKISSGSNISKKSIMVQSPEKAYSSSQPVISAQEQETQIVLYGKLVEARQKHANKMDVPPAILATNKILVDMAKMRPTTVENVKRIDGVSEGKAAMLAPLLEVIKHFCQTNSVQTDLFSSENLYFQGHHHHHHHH

IC50 | SMILES
0.5 to 5 µM | COc1cc(CN(C(=O)Cc2ncc(-c3ccc(F)c(F)c3)cc2F)C2C=CS(=O)(=O)C2)ccn1 (stereo not shown) [I-129, 2-[5-(3,4-difluorophenyl)-3-fluoropyridin-2-yl]-N-(1,1-dioxo-2,3-dihydro-1lambda6-thiophen-3-yl)-N-[(2-methoxypyridin-4-yl)methyl]acetamide]
> 50 µM | COc1cc(CN(C(=O)C2Cc3cc(-c4ccc(F)cc4)ccc3O2)C2C=CS(=O)(=O)C2)ccn1 (stereo not shown) [I-399, N-(1,1-dioxo-2,3-dihydro-1lambda6-thiophen-3-yl)-5-(4-fluorophenyl)-N-[(2-methoxypyridin-4-yl)methyl]-2,3-dihydro-1-benzofuran-2-carboxamide]
< 0.5 µM | CCc1csc(CN(C(=O)Cc2ccc(S(F)(F)(F)(F)F)cc2)C2C=CS(=O)(=O)C2)n1 (stereo not shown) [I-628, N-(1,1-dioxo-2,3-dihydro-1lambda6-thiophen-3-yl)-N-[(4-ethyl-1,3-thiazol-2-yl)methyl]-2-[4-(pentafluoro-lambda6-sulfanyl)phenyl]acetamide]
10 to 50 µM | O=C(CCc1c[nH]c2cc(F)ccc12)N(Cc1ccncc1)C1C=CS(=O)(=O)C1 (stereo not shown) [I-368, N-(1,1-dioxo-2,3-dihydro-1lambda6-thiophen-3-yl)-3-(6-fluoro-1H-indol-3-yl)-N-[(pyridin-4-yl)methyl]propanamide]
0.5 to 5 µM | CC(C)(O)c1cc(CN(C(=O)Cc2ccc(S(F)(F)(F)(F)F)cc2)[C@H]2C=CS(=O)(=O)C2)ccn1 [I-230, N-[(3S)-1,1-dioxo-2,3-dihydro-1lambda6-thiophen-3-yl]-N-{[2-(2-hydroxypropan-2-yl)pyridin-4-yl]methyl}-2-[4-(pentafluoro-lambda6-sulfanyl)phenyl]acetamide]
> 50 µM | Cc1c(CC(=O)N(Cc2ccncc2)C2C=CS(=O)(=O)C2)c(=O)[nH]c2ccccc12 (stereo not shown) [I-418, N-(1,1-dioxo-2,3-dihydro-1lambda6-thiophen-3-yl)-2-(4-methyl-2-oxo-1,2-dihydroquinolin-3-yl)-N-[(pyridin-4-yl)methyl]acetamide]
0.5 to 5 µM | CC(C)(O)c1cc(CN(C(=O)C(OCc2ccccc2)c2ccc(-c3ccc(F)c(F)c3)cc2F)[C@@H]2C=CS(=O)(=O)C2)ccn1 (single isomer, unassigned) [I-814]
> 50 µM | O=C(CCc1nc(-c2ccccc2F)no1)N(Cc1ccncc1)C1C=CS(=O)(=O)C1 (stereo not shown) [I-496, N-(1,1-dioxo-2,3-dihydro-1lambda6-thiophen-3-yl)-3-[3-(2-fluorophenyl)-1,2,4-oxadiazol-5-yl]-N-[(pyridin-4-yl)methyl]propanamide]
5 to 10 µM | O=C(Cc1ccc(-n2cccc2)cc1)N(Cc1cccc2cccnc12)C1C=CS(=O)(=O)C1 (stereo not shown) [I-243, N-(1,1-dioxo-2,3-dihydro-1lambda6-thiophen-3-yl)-2-[4-(1H-pyrrol-1-yl)phenyl]-N-[(quinolin-8-yl)methyl]acetamide]
0.5 to 5 µM | O=C(Cc1ccc(-n2cccc2)cc1)N(Cc1ccnc(-c2ccccc2)c1)C1C=CS(=O)(=O)C1 (stereo not shown) [I-297, N-(1,1-dioxo-2,3-dihydro-1lambda6-thiophen-3-yl)-N-[(2-phenylpyridin-4-yl)methyl]-2-[4-(1H-pyrrol-1-yl)phenyl]acetamide]
0.5 to 5 µM | Cc1cccn1-c1ccc(CC(=O)N(Cc2ccc(C(=O)N3CCN(C(=O)CCCc4cn(Cc5ccc(NC(=O)CCOCCOCCOCCOCCNC(=O)CCCC[C@@H]6SC[C@@H]7NC(=O)N[C@@H]76)cn5)nn4)CC3)cc2)C2C=CS(=O)(=O)C2)c(F)c1 (stereo partly drawn) [II-2, 1-{5-[(3aS,4S,6aR)-2-oxo-hexahydro-1H-thieno[3,4-d]imidazol-4-yl]pentanamido}-N-{6-[(4-{4-[4-(4-{[N-(1,1-dioxo-2,3-dihydro-1lambda6-thiophen-3-yl)-2-[2-fluoro-4-(2-methyl-1H-pyrrol-1-yl)phenyl]acetamido]methyl}benzoyl)piperazin-1-yl]-4-oxobutyl}-1H-1,2,3-triazol-1-yl)methyl]pyridin-3-yl}-3,6,9,12-tetraoxapentadecan-15-amide]
< 0.5 µM | CC(C)(O)c1csc(CN(C(=O)Cn2cc(-c3cc(F)c(F)c(F)c3)cn2)C2C=CS(=O)(=O)C2)n1 (single isomer, unassigned) [I-798]
< 0.5 µM | O=C(Cn1cc(-c2ccc(F)c(F)c2)cn1)N(Cc1ccnc(OCCN2CCOCC2)c1)C1C=CS(=O)(=O)C1 (stereo not shown) [I-761, 2-[4-(3,4-difluorophenyl)-1H-pyrazol-1-yl]-N-(1,1-dioxo-2,3-dihydro-1lambda6-thiophen-3-yl)-N-({2-[2-(morpholin-4-yl)ethoxy]pyridin-4-yl}methyl)acetamide]
< 0.5 µM | COc1cc(CN(C(=O)C(c2ccc(-c3ccc(F)c(F)c3)cc2F)n2cccn2)[C@@H]2C=CS(=O)(=O)C2)ccn1 (stereo partly drawn) [I-683, N-[(3R)-1,1-dioxo-2,3-dihydro-1lambda6-thiophen-3-yl]-N-[(2-methoxypyridin-4-yl)methyl]-2-(1H-pyrazol-1-yl)-2-{3,3′,4′-trifluoro-[1,1′-biphenyl]-4-yl}acetamide]
10 to 50 µM | O=C(O)c1cccc(CN(C(=O)Cc2ccc(-n3cccc3)cc2)C2C=CS(=O)(=O)C2)c1 (stereo not shown) [I-352, 3-{[N-(1,1-dioxo-2,3-dihydro-1lambda6-thiophen-3-yl)-2-[4-(1H-pyrrol-1-yl)phenyl]acetamido]methyl}benzoic acid]
< 0.5 µM | O=C(Cn1cc(-c2cc(F)c(F)c(F)c2)cn1)N(Cc1cc(C2CC2)ns1)C1C=CS(=O)(=O)C1 (stereo not shown) [I-824, N-[(3-cyclopropyl-1,2-thiazol-5-yl)methyl]-N-(1,1-dioxo-2,3-dihydro-1lambda6-thiophen-3-yl)-2-[4-(3,4,5-trifluorophenyl)-1H-pyrazol-1-yl]acetamide]
> 50 µM | O=C1Nc2ccccc2C1CCC(=O)N(Cc1ccncc1)C1C=CS(=O)(=O)C1 (stereo not shown) [I-585, N-(1,1-dioxo-2,3-dihydro-1lambda6-thiophen-3-yl)-3-(2-oxo-2,3-dihydro-1H-indol-3-yl)-N-[(pyridin-4-yl)methyl]propanamide]
10 to 50 µM | COc1cc(CN(C(=O)Cc2ccc(OC3CC3)cc2)C2C=CS(=O)(=O)C2)ccn1 (stereo not shown) [I-588, 2-(4-cyclopropoxyphenyl)-N-(1,1-dioxo-2,3-dihydro-1lambda6-thiophen-3-yl)-N-[(2-methoxypyridin-4-yl)methyl]acetamide]
< 0.5 µM | CNC(=O)C(C(=O)N(Cc1ccnc(OC)c1)[C@@H]1C=CS(=O)(=O)C1)c1ccc(-c2ccc(F)c(F)c2)cc1F (single isomer, unassigned) [I-693, (2R*)-N′-[(3R)-1,1-dioxo-2,3-dihydro-1lambda6-thiophen-3-yl]-N′-[(2-methoxypyridin-4-yl)methyl]-N-methyl-2-{3,3′,4′-trifluoro-[1,1′-biphenyl]-4-yl}propanediamide]
10 to 50 µM | COC(C(=O)N(Cc1ccncc1)C1C=CS(=O)(=O)C1)c1ccc(-c2ccc(F)cc2)cc1 (single isomer, unassigned) [I-330, (2R*)-N-[(3R**)-1,1-dioxo-2,3-dihydro-1lambda6-thiophen-3-yl]-2-{4′-fluoro-[1,1′-biphenyl]-4-yl}-2-methoxy-N-[(pyridin-4-yl)methyl]acetamide]
> 50 µM | Cn1c(CC(=O)N(Cc2ccncc2)C2C=CS(=O)(=O)C2)nnc1-c1ccccc1 (stereo not shown) [I-443, N-(1,1-dioxo-2,3-dihydro-1lambda6-thiophen-3-yl)-2-(4-methyl-5-phenyl-4H-1,2,4-triazol-3-yl)-N-[(pyridin-4-yl)methyl]acetamide]
> 50 µM | Cc1cccc(-c2nc(CC(=O)N(Cc3ccncc3)C3C=CS(=O)(=O)C3)cs2)c1 (stereo not shown) [I-333, N-(1,1-dioxo-2,3-dihydro-1lambda6-thiophen-3-yl)-2-[2-(3-methylphenyl)-1,3-thiazol-4-yl]-N-[(pyridin-4-yl)methyl]acetamide]
> 50 µM | O=C(Cc1ccc(-n2cccc2)cc1)N(Cc1ccncc1)C1C=CS(=O)(=O)C1 (single isomer, unassigned) [I-490]
< 0.5 µM | O=C(Cc1ccc(-n2cccc2)cc1)N(Cc1nc(C2CC2)cs1)[C@@H]1C=CS(=O)(=O)C1 [I-83, N-[(4-cyclopropyl-1,3-thiazol-2-yl)methyl]-N-[(3R)-1,1-dioxo-2,3-dihydro-1lambda6-thiophen-3-yl]-2-[4-(1H-pyrrol-1-yl)phenyl]acetamide]
10 to 50 µM | O=C(Cc1ccc(-n2cccc2)cc1)N(Cc1ccc(O)cc1)C1C=CS(=O)(=O)C1 (stereo not shown) [I-303, N-(1,1-dioxo-2,3-dihydro-1lambda6-thiophen-3-yl)-N-[(4-hydroxyphenyl)methyl]-2-[4-(1H-pyrrol-1-yl)phenyl]acetamide]
0.5 to 5 µM | Cc1cccn1-c1ccc(CC(=O)N(Cc2ccn(C)c(=O)c2)C2C=CS(=O)(=O)C2)c(F)c1 (stereo not shown) [I-173, N-(1,1-dioxo-2,3-dihydro-1lambda6-thiophen-3-yl)-2-[2-fluoro-4-(2-methyl-1H-pyrrol-1-yl)phenyl]-N-[(1-methyl-2-oxo-1,2-dihydropyridin-4-yl)methyl]acetamide]
5 to 10 µM | CC(C)(O)c1cc(CN(C(=O)C2Cc3cc(-c4ccc(F)cc4)ccc32)C2C=CS(=O)(=O)C2)ccn1 (stereo not shown) [I-223, N-(1,1-dioxo-2,3-dihydro-1lambda6-thiophen-3-yl)-3-(4-fluorophenyl)-N-{[2-(2-hydroxypropan-2-yl)pyridin-4-yl]methyl}bicyclo[4.2.0]octa-1,3,5-triene-7-carboxamide]
0.5 to 5 µM | CN(C)C(=O)C(C(=O)N(Cc1nc(C2CC2)cs1)C1C=CS(=O)(=O)C1)c1ccc(S(F)(F)(F)(F)F)cc1 (stereo not shown) [I-107, N′-[(4-cyclopropyl-1,3-thiazol-2-yl)methyl]-N′-(1,1-dioxo-2,3-dihydro-1lambda6-thiophen-3-yl)-N,N-dimethyl-2-[4-(pentafluoro-lambda6-sulfanyl)phenyl]propanediamide]
